Assay results published in patent US20120328605A1, “COMPOSITIONS AND USES” (priority 2010, published 2012).

Experiments:
[1] = tested on: CD11b+ peripheral blood monocytes; test: Ex vivo uptake assay of Aβ1-42 by peripheral blood monocytes; type: cell-based, C57BL/6 mice; conditions: AS01B mouse full dose (5 ug per mouse) or CRX601 2 μg i.m.; FIG. 14
Protocol: Preparation of cells: Peripheral blood was drawn from C57BL/6 mice via cardiac puncture with lithium-heparin as anticoagulant, 24-hours after injection of the adjuvants used herein. Red blood cell lysis was performed twice on pooled blood with Ammonium Chloride-based Buffer (Sigma, Steinheim, Germany) and cells were counted with the EasyCount™ System (Immunicon). […]
FACS analysis: cells were harvested after incubation with fluorescent Aβ peptide with Trypsin/EDTA and cold PBS and washed three times. 500,000 cells were incubated in 96-well plate for 10 min. on ice in the presence of Rat anti-Mouse CD16/CD32 (clone 2.4G2-BD Fc Block™) and further stained for 30 min. with a combination of the following directly conjugated antibodies at their pre-determined optimal concentration: PE-Hamster anti-Mouse CD3 (clone 145-2C11), Rat anti-Mouse CD45R/B220 (clone RA3-6B2), Rat anti-Mouse Ly-6G (clone 1A8), Mouse anti-Mouse NK1.1 (clone PK136), APC-conjugated Rat anti-Mouse CD11b (clone M1/70), PE-Cy7-conjugated Hamster anti-Mouse CD11c (clone HL3), (all from BD PharMingen). […]
Samples were acquired on a flow cytometer (BD FACSCanto II) and data analyzed with the FACSDiva software (BD Biosciences). […]

APPSwe/PS1 mice = test: T-water maze; type: in vivo
Protocol: Five groups of APPSwe/PS1 mice received one a week for a period of 12 weeks the following treatment: • Gr1: APPSwe/PS1+NaCl 0.9% n(=20), i.p. injections • Gr4: APPSwe/PS1+CRX527 (20 μg/mouse, 130 μl, n=10), i.p. injections • Gr5: […] (50 μg/mouse, 130 μl, n=10), i.p. injections • Gr8 APPSwe/PS1+AS15 ( 1/10th of human dose, 50 μl, n=10), i.m. injections • Gr9: APPSwe/PS1+AS01B ( 1/10th of human dose, 50 μl, n=10), i.m. injections
Mice were tested during the “light on” phase of the day. Behavioral experimenter was blinded to the genetic and treatment status of animals. To assess hippocampal-dependent spatial learning and memory, mice were trained in the T-water maze task. In this paradigm, we evaluate the mouse's ability to remember the spatial location of submerged platform. The T-maze apparatus (length of stem, 64 cm; length of arms, 30 cm; width, 12 cm; height of walls, 16 cm) was made of clear fiberglass and filled with water (23±1° C.) at a height of 12 cm. A platform (11×11 cm) was placed at the end of the target arm and was submerged 1 cm below the surface. The acquisition phase allows to evaluate animals for left-right spatial learning. During the first two trials, platforms were placed on each arms of the maze to test the spontaneous turning preference of the mouse. After these two trials, the least chosen arm was reinforced by the escape platform. The mice were placed in the stem of the T-maze and choose to swim either left or right until they found the submerged platform and escape to it, to a maximum of 60 s. After reaching the platform, the mice remained on it for 20 s and then were immediately placed back in the maze. […] Repeated trials were presented on the same day up to a maximum of 48 trials. A rest period of at least 10-15 min intervened between each block of 10 trials. A mouse was considered to have learned the task when it made no errors in a block of five consecutive trials. […] The number of trials to reach the criterion (five of five correct choices made on consecutive trials) was measured as well as the latency to find the escape platform.

With CCCCCCCCCCC[C@H](CC(=O)N[C@H]1[C@H](OC[C@H](NC(=O)C[C@@H](CCCCCCCCCCC)OCCCCCCCCCC)C(=O)O)O[C@H](CO)[C@@H](OP(=O)(O)O)[C@@H]1OC(=O)C[C@@H](CCCCCCCCCCC)OCCCCCCCCCC)OCCCCCCCCCC [CRX601] the “ex vivo uptake of Aβ42 by monocytes compared to PBS group” value [1] was “higher amount of Aβ42”, the “behaviour as assessed by T water maze testing” value (APPSwe/PS1 mice; Example 21: twelve weekly injections, CRX527, CRX601 20 μg i.p., 3D MPL 50 μg i.p., AS01B 1/10th human dose i.m., FIG. 24) was “significant improvements in behaviour” and the “cognitive functions, T-water maze vs PBS-treated control group” value (APPSwe/PS1 mice; Example 22, i.m. 12× weekly: CRX601 2 μg, CRX601 2 ug in AS03, 3D MPL 5 ug, AS01B 1/10 human dose, unpaired t-tests, FIG. 27A) was “significant improvement of their cognitive functions”.
